Source: ChEMBL document CHEMBL1201862, “PubChem BioAssay data set” (2004)
Activity calls are given as the source filed them.

How the values were obtained:
[1] = biological target: Kappa-type opioid receptor (Homo sapiens, UniProt P41145); assay: SAR analysis of small molecule agonists of the kappa opioid receptor via a luminescent beta-arrestin assay - Set 3. [Related pubchem assays (depositor defined):AID1777, AID1785, AID1786, AID1966, AID2133, AID2136, AID2284, AID2500]; assay type: functional
Chain of Kappa-type opioid receptor (P41145 whole entry): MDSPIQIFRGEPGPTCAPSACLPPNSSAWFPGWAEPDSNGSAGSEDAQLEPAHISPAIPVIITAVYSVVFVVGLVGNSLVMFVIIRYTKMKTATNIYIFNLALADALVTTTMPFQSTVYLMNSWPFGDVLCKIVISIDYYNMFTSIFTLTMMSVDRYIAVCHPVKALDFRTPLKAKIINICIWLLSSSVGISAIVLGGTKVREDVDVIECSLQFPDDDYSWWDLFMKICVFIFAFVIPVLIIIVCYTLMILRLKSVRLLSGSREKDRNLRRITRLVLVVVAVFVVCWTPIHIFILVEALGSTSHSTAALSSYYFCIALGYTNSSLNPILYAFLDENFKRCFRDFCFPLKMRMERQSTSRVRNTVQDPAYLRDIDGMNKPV

[2] = biological target: G-protein coupled receptor 55 (Homo sapiens, UniProt Q9Y2T6); assay: SAR Analysis of Selective Antagonists of GPR55 using an Image-Based Assay - Set 4. [Related pubchem assays (depositor defined):AID2013, AID2026]; assay type: functional;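 further: antagonism of response to 5 µM lysophosphatidylinositol agonist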
Chain of G-protein coupled receptor 55 (Q9Y2T6 whole entry): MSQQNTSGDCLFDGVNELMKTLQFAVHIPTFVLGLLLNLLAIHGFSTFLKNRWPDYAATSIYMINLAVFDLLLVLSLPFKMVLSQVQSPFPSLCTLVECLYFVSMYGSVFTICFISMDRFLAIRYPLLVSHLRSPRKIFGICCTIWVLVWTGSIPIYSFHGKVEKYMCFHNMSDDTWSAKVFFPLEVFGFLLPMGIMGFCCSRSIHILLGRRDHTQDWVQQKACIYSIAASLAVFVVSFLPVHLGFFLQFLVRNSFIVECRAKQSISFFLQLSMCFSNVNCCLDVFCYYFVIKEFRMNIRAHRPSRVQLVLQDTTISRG

Cannabinoid receptor 1 [3] = biological target: T1, Cannabinoid receptor 1 (Homo sapiens, UniProt P21554); assay: SAR analysis of antagonists of the Cannabinoid Receptor 1 using an Image-Based Assay - Set 4. [Related pubchem assays (depositor defined):AID2013, AID2026]; assay type: functional
T1 sequence (P21554 whole entry): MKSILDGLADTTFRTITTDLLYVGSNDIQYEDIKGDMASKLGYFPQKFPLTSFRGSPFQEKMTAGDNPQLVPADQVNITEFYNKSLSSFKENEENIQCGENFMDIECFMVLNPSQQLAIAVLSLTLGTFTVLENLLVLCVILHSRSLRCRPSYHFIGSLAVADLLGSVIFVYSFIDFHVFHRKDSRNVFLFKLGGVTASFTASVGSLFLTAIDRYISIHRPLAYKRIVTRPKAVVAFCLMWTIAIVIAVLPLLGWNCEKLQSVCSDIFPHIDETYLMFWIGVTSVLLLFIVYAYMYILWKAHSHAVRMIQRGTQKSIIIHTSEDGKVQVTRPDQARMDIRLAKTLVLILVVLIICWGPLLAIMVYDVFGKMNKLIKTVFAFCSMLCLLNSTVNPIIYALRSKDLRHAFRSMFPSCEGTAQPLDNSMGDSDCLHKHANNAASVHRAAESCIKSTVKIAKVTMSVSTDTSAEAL

[4] = biological target: T2, G-protein coupled receptor 35 (Homo sapiens, UniProt Q9HC97); assay: SAR analysis of Antagonists of the GPR35 Receptor using an Image-Based Assay - Set 6. [Related pubchem assays (depositor defined):AID2013, AID2026]; assay type: functional
T2 sequence (Q9HC97 whole entry): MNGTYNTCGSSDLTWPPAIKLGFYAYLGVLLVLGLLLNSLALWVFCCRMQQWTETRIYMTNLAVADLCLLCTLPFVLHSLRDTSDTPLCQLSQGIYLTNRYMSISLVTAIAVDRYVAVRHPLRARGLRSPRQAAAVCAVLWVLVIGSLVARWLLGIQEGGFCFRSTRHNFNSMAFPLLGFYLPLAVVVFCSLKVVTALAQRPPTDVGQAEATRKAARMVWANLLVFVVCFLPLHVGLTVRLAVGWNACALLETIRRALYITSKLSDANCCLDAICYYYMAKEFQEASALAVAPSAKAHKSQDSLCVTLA

Cannabinoid receptor 2 [5] = biological target: T3, Cannabinoid receptor 2 (Homo sapiens, UniProt P34972); assay: SAR analysis of agonists of the Cannabinoid Receptor 2 using an Image-Based Assay - Set 3. [Related pubchem assays (depositor defined):AID2013, AID2026]; assay type: functional
T3 sequence (P34972 whole entry): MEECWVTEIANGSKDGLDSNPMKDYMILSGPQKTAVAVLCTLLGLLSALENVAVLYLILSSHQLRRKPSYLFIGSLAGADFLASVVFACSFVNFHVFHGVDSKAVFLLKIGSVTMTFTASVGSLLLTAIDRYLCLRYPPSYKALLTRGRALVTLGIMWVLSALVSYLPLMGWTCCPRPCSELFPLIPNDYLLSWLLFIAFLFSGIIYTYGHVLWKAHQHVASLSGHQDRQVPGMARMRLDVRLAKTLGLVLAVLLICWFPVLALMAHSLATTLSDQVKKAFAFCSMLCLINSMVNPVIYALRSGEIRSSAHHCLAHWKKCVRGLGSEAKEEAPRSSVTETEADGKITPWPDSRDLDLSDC

Cannabinoid receptor 1 [6] = biological target: T1, Cannabinoid receptor 1; assay: SAR analysis of agonists of the Cannabinoid Receptor 1 using an Image-Based Assay - Set 4. [Related pubchem assays (depositor defined):AID2013, AID2026]; assay type: functional
[7] = biological target: T2, G-protein coupled receptor 35; assay: SAR analysis of Agonists of the GPR35 Receptor using an Image-Based Assay - Set 4. [Related pubchem assays (depositor defined):AID2013, AID2026]; assay type: functional
Cannabinoid receptor 2 [8] = biological target: T3, Cannabinoid receptor 2; assay: SAR analysis of antagonists of the Cannabinoid Receptor 2 using an Image-Based Assay - Set 3. [Related pubchem assays (depositor defined):AID2013, AID2026]; assay type: functional
Hexokinase HKDC1 = biological target: T4, Hexokinase HKDC1 (Homo sapiens, UniProt Q2TB90); assay: HKDC1 hexokinase activators, dose response, biochemical, W721R variant (AID 504730); assay type: functional
T4 sequence (Q2TB90 whole entry): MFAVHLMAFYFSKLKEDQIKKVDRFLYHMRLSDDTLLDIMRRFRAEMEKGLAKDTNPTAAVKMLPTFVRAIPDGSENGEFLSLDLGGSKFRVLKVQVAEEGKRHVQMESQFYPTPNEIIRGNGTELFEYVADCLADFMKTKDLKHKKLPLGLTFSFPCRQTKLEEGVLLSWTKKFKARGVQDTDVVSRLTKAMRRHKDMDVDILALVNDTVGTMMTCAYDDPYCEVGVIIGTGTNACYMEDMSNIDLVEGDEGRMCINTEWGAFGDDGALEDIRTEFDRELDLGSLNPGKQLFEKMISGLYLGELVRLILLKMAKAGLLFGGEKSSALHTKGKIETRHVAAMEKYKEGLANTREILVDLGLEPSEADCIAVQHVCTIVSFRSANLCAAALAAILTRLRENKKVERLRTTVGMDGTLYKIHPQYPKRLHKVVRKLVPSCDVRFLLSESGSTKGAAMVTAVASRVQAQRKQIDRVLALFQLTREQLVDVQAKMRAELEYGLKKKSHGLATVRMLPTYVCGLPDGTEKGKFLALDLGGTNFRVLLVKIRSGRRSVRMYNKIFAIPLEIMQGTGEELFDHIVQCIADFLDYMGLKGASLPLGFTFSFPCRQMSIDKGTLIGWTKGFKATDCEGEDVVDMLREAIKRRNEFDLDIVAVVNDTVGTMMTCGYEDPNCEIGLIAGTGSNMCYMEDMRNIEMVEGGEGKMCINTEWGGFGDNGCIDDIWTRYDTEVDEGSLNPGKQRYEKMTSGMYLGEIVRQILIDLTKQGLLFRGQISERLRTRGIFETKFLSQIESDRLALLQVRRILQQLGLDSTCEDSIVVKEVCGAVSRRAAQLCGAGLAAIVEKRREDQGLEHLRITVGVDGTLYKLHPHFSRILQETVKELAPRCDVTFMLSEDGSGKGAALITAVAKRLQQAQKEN

Hexokinase-1 = biological target: T5, Hexokinase-1 (Homo sapiens, UniProt P19367); assay: hexokinase 1 activators, dose response, selectivity assay for HKDC1 activator project, biochemical (AID 504762); assay type: functional
T5 sequence (P19367 whole entry): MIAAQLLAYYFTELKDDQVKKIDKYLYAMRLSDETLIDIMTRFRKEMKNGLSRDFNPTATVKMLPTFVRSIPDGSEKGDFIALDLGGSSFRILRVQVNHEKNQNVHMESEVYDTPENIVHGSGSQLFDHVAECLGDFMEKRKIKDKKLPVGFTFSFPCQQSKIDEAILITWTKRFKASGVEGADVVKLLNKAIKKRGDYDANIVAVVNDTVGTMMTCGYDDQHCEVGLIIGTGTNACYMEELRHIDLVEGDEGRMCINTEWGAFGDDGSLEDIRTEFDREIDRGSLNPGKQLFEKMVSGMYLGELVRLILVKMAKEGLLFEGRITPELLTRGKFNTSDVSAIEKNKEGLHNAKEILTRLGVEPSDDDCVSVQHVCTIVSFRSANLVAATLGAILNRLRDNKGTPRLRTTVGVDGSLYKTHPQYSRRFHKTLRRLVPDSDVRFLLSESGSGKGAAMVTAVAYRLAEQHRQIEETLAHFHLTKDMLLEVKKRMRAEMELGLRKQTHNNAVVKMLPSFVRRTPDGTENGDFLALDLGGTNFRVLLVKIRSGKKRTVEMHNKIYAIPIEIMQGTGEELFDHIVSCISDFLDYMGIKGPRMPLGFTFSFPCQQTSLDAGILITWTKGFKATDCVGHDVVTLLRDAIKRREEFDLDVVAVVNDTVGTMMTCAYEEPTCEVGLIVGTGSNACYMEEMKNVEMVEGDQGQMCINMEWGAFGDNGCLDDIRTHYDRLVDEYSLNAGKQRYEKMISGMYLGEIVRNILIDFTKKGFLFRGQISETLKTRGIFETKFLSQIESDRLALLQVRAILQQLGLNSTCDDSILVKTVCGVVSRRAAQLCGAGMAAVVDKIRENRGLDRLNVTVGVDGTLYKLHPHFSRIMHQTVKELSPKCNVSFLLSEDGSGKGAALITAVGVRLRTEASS

[9] = biological target: Tyrosine-protein phosphatase non-receptor type 12 (Homo sapiens, UniProt Q05209); assay: SAR Selectivity Analysis of small molecule inhibitors of PEST using pCAP in a fluorescence assay. [Related pubchem assays (depositor defined):AID1779, AID1784, AID2135]; assay type: functional
Chain of Tyrosine-protein phosphatase non-receptor type 12 (Q05209 whole entry): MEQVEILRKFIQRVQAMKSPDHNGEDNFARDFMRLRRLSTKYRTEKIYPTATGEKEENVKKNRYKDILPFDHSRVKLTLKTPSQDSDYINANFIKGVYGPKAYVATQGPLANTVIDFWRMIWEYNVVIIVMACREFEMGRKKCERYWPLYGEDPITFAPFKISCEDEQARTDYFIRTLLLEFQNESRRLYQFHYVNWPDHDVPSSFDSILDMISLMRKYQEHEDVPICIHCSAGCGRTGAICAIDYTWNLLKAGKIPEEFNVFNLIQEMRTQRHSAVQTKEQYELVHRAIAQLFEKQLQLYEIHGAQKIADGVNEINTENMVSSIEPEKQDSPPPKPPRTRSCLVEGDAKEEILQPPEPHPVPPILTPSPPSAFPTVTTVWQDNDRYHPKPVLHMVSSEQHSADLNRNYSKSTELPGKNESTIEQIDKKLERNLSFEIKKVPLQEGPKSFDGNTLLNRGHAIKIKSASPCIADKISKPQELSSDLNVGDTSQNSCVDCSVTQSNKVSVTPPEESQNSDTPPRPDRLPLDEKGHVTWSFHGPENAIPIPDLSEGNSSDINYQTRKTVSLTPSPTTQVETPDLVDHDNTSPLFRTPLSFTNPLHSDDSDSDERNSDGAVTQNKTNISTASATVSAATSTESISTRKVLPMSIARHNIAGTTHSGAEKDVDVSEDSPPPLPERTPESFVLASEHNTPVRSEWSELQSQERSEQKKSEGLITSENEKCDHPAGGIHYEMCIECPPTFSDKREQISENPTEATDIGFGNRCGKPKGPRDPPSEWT

[10] = biological target: T6, Tyrosine-protein phosphatase non-receptor type 22 (Homo sapiens, UniProt Q9Y2R2); assay: SAR LYP1 Fluorescent Assay using OMFP substrate for In Vitro dose response studies - Set 2. [Related pubchem assays (depositor defined):AID1779, AID1784, AID2140, AID449726, AID488869]; assay type: functional
T6 sequence (Q9Y2R2 whole entry): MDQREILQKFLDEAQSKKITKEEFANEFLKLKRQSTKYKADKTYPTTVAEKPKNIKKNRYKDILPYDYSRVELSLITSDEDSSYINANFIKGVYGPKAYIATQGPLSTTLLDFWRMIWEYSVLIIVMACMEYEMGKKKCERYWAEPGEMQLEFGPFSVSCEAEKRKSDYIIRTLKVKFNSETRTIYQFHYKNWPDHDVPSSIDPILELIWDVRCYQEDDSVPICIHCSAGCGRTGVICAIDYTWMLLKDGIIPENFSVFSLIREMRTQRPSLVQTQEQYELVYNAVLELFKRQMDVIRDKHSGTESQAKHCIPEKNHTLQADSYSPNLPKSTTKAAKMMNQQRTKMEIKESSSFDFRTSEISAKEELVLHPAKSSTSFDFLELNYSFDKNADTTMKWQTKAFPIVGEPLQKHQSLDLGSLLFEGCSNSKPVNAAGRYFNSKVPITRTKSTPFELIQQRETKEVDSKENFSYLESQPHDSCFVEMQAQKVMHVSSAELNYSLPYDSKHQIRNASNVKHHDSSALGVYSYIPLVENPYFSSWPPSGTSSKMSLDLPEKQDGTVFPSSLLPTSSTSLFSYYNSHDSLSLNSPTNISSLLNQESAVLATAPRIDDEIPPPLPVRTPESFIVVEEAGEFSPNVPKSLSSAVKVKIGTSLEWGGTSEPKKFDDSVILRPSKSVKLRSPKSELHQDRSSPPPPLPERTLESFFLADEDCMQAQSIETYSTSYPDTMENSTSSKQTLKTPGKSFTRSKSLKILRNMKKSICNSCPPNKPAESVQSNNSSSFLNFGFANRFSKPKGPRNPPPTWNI

[11] = biological target: T7, Tyrosine-protein phosphatase non-receptor type 7 (Homo sapiens, UniProt P35236); assay: HePTP (PTPN7) phosphatase inhibitor potency, SAR follow-up, biochemical, set 2 (AID 449736); assay type: functional
T7 sequence (P35236 whole entry): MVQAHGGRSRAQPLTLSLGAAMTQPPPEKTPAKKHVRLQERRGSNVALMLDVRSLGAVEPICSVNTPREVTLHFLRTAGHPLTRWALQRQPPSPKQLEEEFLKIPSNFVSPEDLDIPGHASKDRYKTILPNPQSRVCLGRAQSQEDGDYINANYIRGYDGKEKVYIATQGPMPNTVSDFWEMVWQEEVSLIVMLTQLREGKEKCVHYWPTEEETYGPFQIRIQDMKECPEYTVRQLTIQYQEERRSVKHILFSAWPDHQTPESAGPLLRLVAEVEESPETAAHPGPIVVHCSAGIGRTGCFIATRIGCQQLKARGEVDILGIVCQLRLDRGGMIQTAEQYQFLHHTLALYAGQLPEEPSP

[12] = biological target: T6, Tyrosine-protein phosphatase non-receptor type 22; assay: SAR LYP1 Fluorescent Assay using pCAP substrate for In Vitro dose response studies - Set 2. [Related pubchem assays (depositor defined):AID1779, AID1784, AID2135, AID449727]; assay type: functional
[13] = biological target: T6, Tyrosine-protein phosphatase non-receptor type 22; assay: SAR LYP1 Fluorescent Assay using OMFP substrate for In Vitro dose response studies - Set 3. [Related pubchem assays (depositor defined):AID1779, AID1784, AID2140, AID2686]; assay type: functional
[14] = growth suppression of PTEN-null colon cells, dose response, cell-based, HCT116 PTEN knockout (AID 1047); assay type: functional;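 further: HCT116 colon tumor cells with PTEN knocked out; cells exposed to compound for 60 hours before readout; potency for loss of cell viability measured by luminescence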
[15] = decrease of PhoP-driven GFP reporter signal, S. Typhimurium, dose response, PhoP regulon inhibitor project, purified and synthesized compounds, set 2 (AID 2831); assay type: functional
Streptokinase A = biological target: T8, Streptokinase A (Streptococcus pyogenes serotype M1, UniProt P10520); assay: S. pyogenes streptokinase expression inhibitors, potency, dose response, plasminogen activation absorbance, OD405 (AID 1914); assay type: functional, Streptococcus pyogenes M1 GAS;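 further: secreted streptokinase activity via plasminogen activation per viability signal from cell pellet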
T8 sequence (P10520 whole entry): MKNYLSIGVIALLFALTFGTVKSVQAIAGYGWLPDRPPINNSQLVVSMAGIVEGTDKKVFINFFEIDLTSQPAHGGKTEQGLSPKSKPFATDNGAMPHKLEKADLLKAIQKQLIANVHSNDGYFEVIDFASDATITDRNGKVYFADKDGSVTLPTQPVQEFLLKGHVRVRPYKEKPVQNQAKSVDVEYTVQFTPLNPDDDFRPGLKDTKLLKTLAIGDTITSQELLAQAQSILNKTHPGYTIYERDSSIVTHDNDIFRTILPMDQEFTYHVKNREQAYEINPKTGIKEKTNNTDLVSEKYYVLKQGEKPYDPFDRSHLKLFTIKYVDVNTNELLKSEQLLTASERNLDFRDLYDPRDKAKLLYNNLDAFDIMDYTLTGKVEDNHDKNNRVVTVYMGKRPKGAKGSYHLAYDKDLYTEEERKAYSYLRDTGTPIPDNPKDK

[16] = Luminescence Cell-Based Dose Retest to Confirm Inhibitors of Cancer Stem Cells. [Related pubchem assays (depositor defined):AID2717, AID2721]; assay type: functional; conditions: Homo sapiens
Streptococcus = assay: Group A Streptococcus viability loss, dose response, counter-screen for streptokinase expression inhibitor project, luminescence, BacTiterGlo (AID 1915); assay type: functional, organism-based;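 further: potency for reduction of bacterial viability or growth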
[17] = growth suppression of beta-catenin-knockout colon cells, dose response, cell-based, HCT116, human colon tumor (AID 1045); assay type: functional;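 further: HCT116 colon tumor cells with beta catenin knocked out; cells exposed to compound for 60 hours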
[18] = tested on: Streptococcus sp. 'group A'; assay: growth inhibition of control SK(-) GAS strain, dose response, counter-screen for streptokinase expression inhibitor project, luminescence, kanamycin, BacTiterGlo, confirmation (AID 1900); assay type: functional, organism-based
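Wherever AC50 is given: cells exposed to compound for roughly 70 hours or longer before luminescence read.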

FC(F)(F)c1cc(CSc2nnc(-c3ccccn3)n2Cc2ccccc2)ccc1Cl
EC50 [1]: 2.22 µM (active)

N=c1c(C(=O)NCc2ccco2)cc2c(=O)n3ccccc3nc2n1C1CCCC1
IC50 [2]: 28.3 µM (inactive) | IC50 (Cannabinoid receptor 1 [3]): 31.5 µM (inactive) | IC50 [4]: > 32 µM (inactive) | EC50 (Cannabinoid receptor 2 [5]): 2.13 µM (active) | EC50 (Cannabinoid receptor 1 [6]): > 32 µM (inactive) | EC50 [7]: > 32 µM (inactive) | IC50 (Cannabinoid receptor 2 [8]): > 32 µM (inactive)

CCOC(=O)c1c(C)[nH]c(C2=NN=C(Nc3ccccc3OC)SC2)c1C
EC50 (Hexokinase HKDC1): 15 µM (active) | EC50 (Hexokinase-1): 15.3 µM (active)

COc1cc(/C=C(\C#N)C(=O)Nc2cccc(C(=O)O)c2)ccc1OCc1ccc(C)cc1
IC50 [9]: 2.69 µM (active) | IC50 [10]: 14.7 µM (active) | IC50 [11]: 2.02 µM (active) | IC50 [12]: 22.1 µM (active) | IC50 [13]: 5.39 µM (active)

CN1CCN(C2=Cc3cc(Cl)ccc3Sc3cc(F)ccc32)CC1
EC50 [14]: 9.39 µM (active) | IC50 [15]: > 125 µM (active) | EC50 (Streptokinase A): > 150 µM (not active) | AC50 [16]: 6.63 µM (active) | EC50 (Streptococcus): 12 µM (active) | EC50 [17]: 10.5 µM (active) | EC50 [18]: 7.44 µM (active)
